Data published in US20130065868A1, “ANXIOYTIC MARCGRAVIACEAE COMPOSITIONS CONTAINING BETULINIC ACID, BETULINIC ACID DERIVATIVES, AND METHODS” (UNIVERSITY OF OTTAWA, priority 2002, published 2013).

Tests used:
Sprague-Dawley rats = assay: Elevated plus-maze (EPM) test in rats; format: in vivo, rat; details: 1 mg/kg in peanut oil orally (gavage), 45-60 min after treatment, vs peanut oil (FIG. 3)
Procedure: The majority of tests described in the following examples were conducted on adult; male Sprague-Dawley rats (typically weighing ˜300-450 gm) were obtained from Charles River Canada, St. Constant, Quebec. They were individually housed in standard clear Plexiglas cages (24×30×18 cm) and maintained on a 12 hr light/dark cycle (7:00 A.M.-7:00 P.M. light phase) in a temperature and humidity controlled room. Unless indicated otherwise, animals had free access to water and maintained on a restricted diet of 5 pellets a day of Purina Lab Chow. All experimental procedures complied with the guidelines of the Canadian Council on Animal Care and were approved by the Research Ethics Committee at the University of Ottawa. […]
The EPM constitutes of a plus-shaped maze with two enclosed arms (or alleys; 50×10×40 cm) and two open arms (or planks; 50×10 cm), with a 10×10 cm central zone. […] To avoid distractions, the EPM was surrounded by black curtain and the subjects were monitored remotely, using a closed circuit camera mounted above the set-up.
The rats were randomly assigned to each of the drug conditions. […] Behaviours scored included time spent in the open arms of the maze, time spent in the closed arms of the maze, number of entries into the open-arms and number of entries into the closed arm of the maze. […]

adrenergic α1 = assay: MDS Panlabs screen: adrenergic α1; format: binding; details: Catecholamines
Procedure: (§1) Tests were conducted by MDS Panlabs to determine whether any of the classical neurotransmitter systems or the peptidergic systems thought to play a role in anxiety are affected by betulinic acid.

adrenergic β = assay: MDS Panlabs screen: adrenergic β; format: binding; details: Catecholamines
Procedure: as §1

MAO B = MAO B (Homo sapiens, UniProt P27338); assay: MDS Panlabs screen: MAO B; format: biochemical; details: Catecholamines
Chain of MAO B (P27338 whole entry): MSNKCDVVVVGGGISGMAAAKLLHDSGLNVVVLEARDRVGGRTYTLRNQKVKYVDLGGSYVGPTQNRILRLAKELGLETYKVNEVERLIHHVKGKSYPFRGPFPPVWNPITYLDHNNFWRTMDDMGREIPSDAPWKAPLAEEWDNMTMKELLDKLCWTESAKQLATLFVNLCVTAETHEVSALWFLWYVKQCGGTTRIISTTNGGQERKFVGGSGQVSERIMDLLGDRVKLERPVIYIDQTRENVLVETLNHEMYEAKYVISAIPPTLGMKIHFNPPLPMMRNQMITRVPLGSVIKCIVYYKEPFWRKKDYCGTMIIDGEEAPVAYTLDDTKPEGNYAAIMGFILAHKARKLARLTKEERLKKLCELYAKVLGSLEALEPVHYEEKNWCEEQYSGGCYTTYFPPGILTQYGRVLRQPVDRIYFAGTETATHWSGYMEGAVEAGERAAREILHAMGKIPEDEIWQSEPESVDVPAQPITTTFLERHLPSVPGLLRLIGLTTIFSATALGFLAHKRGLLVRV
Procedure: as §1

domaine D1 = domaine D1 (Homo sapiens, UniProt P21728); assay: MDS Panlabs screen: D1; format: binding; details: Catecholamines
Chain of domaine D1 (P21728 whole entry): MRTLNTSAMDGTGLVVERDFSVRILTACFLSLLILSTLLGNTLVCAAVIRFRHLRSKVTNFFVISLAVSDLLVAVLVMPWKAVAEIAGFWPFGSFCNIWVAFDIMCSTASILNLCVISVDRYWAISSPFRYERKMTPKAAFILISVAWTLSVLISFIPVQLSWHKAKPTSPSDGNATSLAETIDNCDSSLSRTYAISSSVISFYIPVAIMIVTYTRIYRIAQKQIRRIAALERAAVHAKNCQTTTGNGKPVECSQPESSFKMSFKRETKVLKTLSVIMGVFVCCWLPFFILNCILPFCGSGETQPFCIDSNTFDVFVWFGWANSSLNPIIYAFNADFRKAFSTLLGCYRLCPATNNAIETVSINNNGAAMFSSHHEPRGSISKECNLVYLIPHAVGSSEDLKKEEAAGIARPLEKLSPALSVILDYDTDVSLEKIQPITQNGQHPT
Procedure: as §1

domaine D2 = domaine D2 (Homo sapiens, UniProt P14416); assay: MDS Panlabs screen: D2; format: binding; details: Catecholamines
Chain of domaine D2 (P14416 whole entry): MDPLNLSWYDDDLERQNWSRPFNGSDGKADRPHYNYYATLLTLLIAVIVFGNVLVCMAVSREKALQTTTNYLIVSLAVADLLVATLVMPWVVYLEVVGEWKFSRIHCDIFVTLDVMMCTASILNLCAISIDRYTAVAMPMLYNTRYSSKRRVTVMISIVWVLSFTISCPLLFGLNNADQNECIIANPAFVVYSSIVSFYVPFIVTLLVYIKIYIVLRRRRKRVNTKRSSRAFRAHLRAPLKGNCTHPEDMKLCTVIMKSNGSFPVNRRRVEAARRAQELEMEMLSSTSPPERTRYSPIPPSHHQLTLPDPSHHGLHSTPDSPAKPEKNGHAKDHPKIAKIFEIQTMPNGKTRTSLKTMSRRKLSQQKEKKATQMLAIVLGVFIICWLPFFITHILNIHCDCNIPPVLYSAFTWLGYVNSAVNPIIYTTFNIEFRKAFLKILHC
Procedure: as §1

DA transporter = DA transporter (Homo sapiens, UniProt Q01959); assay: MDS Panlabs screen: DA transporter; format: binding; details: Catecholamines
Chain of DA transporter (Q01959 whole entry, species assumed): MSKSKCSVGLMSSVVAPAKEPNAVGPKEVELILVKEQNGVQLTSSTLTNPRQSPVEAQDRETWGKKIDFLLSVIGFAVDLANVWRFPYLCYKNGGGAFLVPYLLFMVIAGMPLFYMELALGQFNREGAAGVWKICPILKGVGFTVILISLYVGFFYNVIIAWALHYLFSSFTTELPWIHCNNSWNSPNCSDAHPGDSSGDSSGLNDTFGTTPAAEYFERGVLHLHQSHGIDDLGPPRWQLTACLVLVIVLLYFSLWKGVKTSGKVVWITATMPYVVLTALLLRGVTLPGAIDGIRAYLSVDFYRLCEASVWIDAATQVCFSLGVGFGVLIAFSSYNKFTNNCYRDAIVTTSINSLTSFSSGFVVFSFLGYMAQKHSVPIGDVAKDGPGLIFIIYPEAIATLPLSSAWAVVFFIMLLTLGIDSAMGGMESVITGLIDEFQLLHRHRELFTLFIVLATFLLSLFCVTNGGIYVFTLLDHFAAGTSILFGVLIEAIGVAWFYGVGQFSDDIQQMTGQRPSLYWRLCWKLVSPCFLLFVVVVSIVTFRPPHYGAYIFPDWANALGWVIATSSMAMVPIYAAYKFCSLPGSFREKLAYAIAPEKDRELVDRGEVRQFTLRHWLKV
Procedure: as §1

GABA transporter = assay: MDS Panlabs screen: GABA transporter; format: binding; details: Gabaergic
Procedure: as §1

GABA C1-channel = assay: MDS Panlabs screen: GABA channel; format: binding; details: Gabaergic
Procedure: as §1

5-HT2 = assay: MDS Panlabs screen: 5-HT2; format: binding; details: Serotonin (5-HT)
Procedure: as §1

Sigma non-selective = assay: MDS Panlabs screen: Sigma non-selective; format: binding
Procedure: as §1

bombesin = assay: MDS Panlabs screen: bombesin; format: binding; details: Peptides
Procedure: as §1

galanin GALR2 = galanin GALR2 (Homo sapiens, UniProt O43603); assay: MDS Panlabs screen: galanin GALR2; format: binding; details: Peptides
Chain of galanin GALR2 (O43603 whole entry): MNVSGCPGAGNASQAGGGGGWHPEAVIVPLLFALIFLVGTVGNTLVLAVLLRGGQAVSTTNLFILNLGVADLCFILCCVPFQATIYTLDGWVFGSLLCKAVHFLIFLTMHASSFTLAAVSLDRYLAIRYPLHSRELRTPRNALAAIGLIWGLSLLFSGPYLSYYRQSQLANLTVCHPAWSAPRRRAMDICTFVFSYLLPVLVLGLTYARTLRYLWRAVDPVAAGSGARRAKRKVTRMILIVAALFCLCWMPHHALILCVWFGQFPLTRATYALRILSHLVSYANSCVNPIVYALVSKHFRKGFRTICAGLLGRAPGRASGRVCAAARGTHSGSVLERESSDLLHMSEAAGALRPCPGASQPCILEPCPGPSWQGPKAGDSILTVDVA
Procedure: as §1

neuropeptide Y1 = neuropeptide Y1 (Homo sapiens, UniProt P25929); assay: MDS Panlabs screen: neuropeptide Y1; format: binding; details: Peptides
Chain of neuropeptide Y1 (P25929 whole entry): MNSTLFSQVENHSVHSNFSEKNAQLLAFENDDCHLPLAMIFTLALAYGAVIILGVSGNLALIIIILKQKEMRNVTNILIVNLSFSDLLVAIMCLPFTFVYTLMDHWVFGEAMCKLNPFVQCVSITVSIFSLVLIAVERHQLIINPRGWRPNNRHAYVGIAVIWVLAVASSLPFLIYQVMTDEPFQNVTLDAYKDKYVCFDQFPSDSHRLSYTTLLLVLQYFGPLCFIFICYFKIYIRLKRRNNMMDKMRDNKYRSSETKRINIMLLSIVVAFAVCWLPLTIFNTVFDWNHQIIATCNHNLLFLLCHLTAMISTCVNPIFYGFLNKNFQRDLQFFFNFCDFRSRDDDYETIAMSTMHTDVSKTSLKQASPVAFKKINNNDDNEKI
Procedure: as §1

neuropeptide Y2 = neuropeptide Y2 (Homo sapiens, UniProt P49146); assay: MDS Panlabs screen: neuropeptide Y2; format: binding; details: Peptides
Chain of neuropeptide Y2 (P49146 whole entry): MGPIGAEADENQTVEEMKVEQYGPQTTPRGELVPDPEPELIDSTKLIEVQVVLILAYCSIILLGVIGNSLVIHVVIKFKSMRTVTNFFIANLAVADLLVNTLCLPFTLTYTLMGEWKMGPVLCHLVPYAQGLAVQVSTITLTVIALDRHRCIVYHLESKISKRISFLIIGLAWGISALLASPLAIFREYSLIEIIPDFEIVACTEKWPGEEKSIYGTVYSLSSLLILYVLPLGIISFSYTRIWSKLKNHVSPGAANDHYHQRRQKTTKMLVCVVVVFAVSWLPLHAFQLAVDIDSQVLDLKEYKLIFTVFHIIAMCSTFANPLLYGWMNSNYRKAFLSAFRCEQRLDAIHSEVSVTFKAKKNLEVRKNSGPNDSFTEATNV
Procedure: as §1

With `C=C(C)[C@@H]1CC[C@]2(C(=O)O)CC[C@]3(C)C(CC[C@@H]4[C@@]5(C)CC[C@H](O)C(C)(C)[C@@H]5CC[C@]43C)[C@@H]12` (stereo partly drawn) [betulinic acid, Betulinic acid] the “time spent on the open arms of the plus-maze” value (Sprague-Dawley rats) was “spent significantly more time on the open arms of the plus-maze”, the “affected by betulinic acid” value (adrenergic α1) was “none of the following neurotransmitters or proteins were affected” and the “affected by betulinic acid” value (adrenergic β) was “none of the following neurotransmitters or proteins were affected”. The “affected by betulinic acid” value (MAO B) was “none of the following neurotransmitters or proteins were affected”, the “affected by betulinic acid” value (domaine D1) was “none of the following neurotransmitters or proteins were affected” and the “affected by betulinic acid” value (domaine D2) was “none of the following neurotransmitters or proteins were affected”. For the same compound, the “affected by betulinic acid” value (DA transporter) was “none of the following neurotransmitters or proteins were affected”, the “affected by betulinic acid” value (GABA transporter) was “none of the following neurotransmitters or proteins were affected” and the “affected by betulinic acid” value (GABA C1-channel) was “none of the following neurotransmitters or proteins were affected”. The “affected by betulinic acid” value (5-HT2) was “none of the following neurotransmitters or proteins were affected”, the “affected by betulinic acid” value (Sigma non-selective) was “none of the following neurotransmitters or proteins were affected” and the “affected by betulinic acid” value (bombesin) was “none of the following neurotransmitters or proteins were affected”. The “affected by betulinic acid” value (galanin GALR2) was “none of the following neurotransmitters or proteins were affected”, the “affected by betulinic acid” value (neuropeptide Y1) was “none of the following neurotransmitters or proteins were affected” and the “affected by betulinic acid” value (neuropeptide Y2) was “none of the following neurotransmitters or proteins were affected”.
